Results reported in ChEMBL document CHEMBL1126387, “Use of transferred nuclear overhauser effects to determine the conformation of 1-(3,4-dichlorophenyl)-2-aminopropane when bound to the active site of phenylethanolamine N-methyltransferace (PNMT)” (Bioorg Med Chem Lett, 1992).

Molecular target: T1, Phenylethanolamine N-methyltransferase (Bos taurus, UniProt P10938)
T1 sequence (P10938 whole entry): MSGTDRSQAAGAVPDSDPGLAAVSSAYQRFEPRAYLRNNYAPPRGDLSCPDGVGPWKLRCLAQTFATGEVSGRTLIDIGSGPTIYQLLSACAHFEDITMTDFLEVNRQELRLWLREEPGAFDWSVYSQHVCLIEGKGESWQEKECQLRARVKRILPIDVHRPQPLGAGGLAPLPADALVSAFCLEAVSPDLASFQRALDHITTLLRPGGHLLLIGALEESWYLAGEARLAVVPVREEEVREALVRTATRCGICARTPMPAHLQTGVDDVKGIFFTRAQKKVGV
Assay: Inhibitory activity against bovine adrenal phenylethanolamine N-methyltransferase(PNMT)

CC(N)Cc1ccc(Cl)c(Cl)c1 (stereo unspecified)
Ki: 6.7 µM
